Measurements as given in ChEMBL document CHEMBL1201862, “PubChem BioAssay data set” (2004).
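Growth conditions: 96-well plates. Treatment: test compound, 48 hours, 5 concentrations. Analysis: linear interpolation between bracketing concentrations; unreached endpoints set to highest concentration. The concentration for 50% growth inhibition is given as GI50.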 Calls of active or inactive are those of the source. No stated cut-off is given here; in the data, active = GI50 up to about 1.1 µM and inactive = higher.

Tests used:
Experiment in all cases: NCI anticancer screen, dose series, 48 h
HT-29 = system: HT-29
SK-MEL-2 = system: SK-MEL-2
HCC 2998 = system: HCC 2998
M14 = system: M14
786-0 = system: 786-0
MDA-MB-435 = system: MDA-MB-435
SK-MEL-28 = system: SK-MEL-28
SN12C = system: SN12C
PC-3 = system: PC-3
NCI-H460 = system: NCI-H460
T47D = system: T47D
UACC-257 = system: UACC-257
MOLT-4 = system: MOLT-4
KM12 = system: KM12
UACC-62 = system: UACC-62
A549 = system: A549
SF-268 = system: SF-268
SK-OV-3 = system: SK-OV-3
OVCAR-8 = system: OVCAR-8
OVCAR-5 = system: OVCAR-5
NCI/ADR-RES = system: NCI/ADR-RES
UO-31 = system: UO-31
SF-295 = system: SF-295
K562 = system: K562
MCF7 = system: MCF7
MDA-MB-231 = system: MDA-MB-231
SW-620 = system: SW-620
BT-549 = system: BT-549
NCI-H226 = system: NCI-H226
HCT-116 = system: HCT-116
SNB-19 = system: SNB-19
A498 = system: A498
OVCAR-4 = system: OVCAR-4
ACHN = system: ACHN
EKVX = system: EKVX
CAKI-1 = system: CAKI-1
NCI-H23 = system: NCI-H23
CCRF-CEM = system: CCRF-CEM
COLO 205 = system: COLO 205
RPMI-8226 = system: RPMI-8226
SF-539 = system: SF-539
Malme-3M = system: Malme-3M
HCT-15 = system: HCT-15
MDA-N = system: MDA-N
U-251 = system: U-251
DU-145 = system: DU-145
SNB-75 = system: SNB-75
Hs-578T = system: Hs-578T
HOP-62 = system: HOP-62
NCI-H522 = system: NCI-H522
HOP-92 = system: HOP-92
IGROV-1 = system: IGROV-1
OVCAR-3 = system: OVCAR-3
LOX IMVI = system: LOX IMVI
SR = system: SR
TK-10 = system: TK-10
RXF 393 = system: RXF 393
HL-60 = system: HL-60
SK-MEL-5 = system: SK-MEL-5

`O=C1c2ccccc2-c2c1c(-c1ccc(O)cc1O)nc1ccc3ccccc3c21` was tested, and the GI50 (HT-29) was > 100 µM (inactive), the GI50 (SK-MEL-2) was > 100 µM (inactive) and the GI50 (HCC 2998) was > 100 µM (inactive). For the same compound, the GI50 (M14) was > 100 µM (inactive), the GI50 (786-0) was > 100 µM (inactive) and the GI50 (MDA-MB-435) was > 100 µM (inactive). The GI50 (SK-MEL-28) was > 100 µM (inactive), the GI50 (SN12C) was > 100 µM (inactive) and the GI50 (PC-3) was > 100 µM (inactive). For the same compound, the GI50 (NCI-H460) was > 100 µM (inactive), the GI50 (T47D) was > 100 µM (inactive) and the GI50 (UACC-257) was > 100 µM (inactive). The GI50 (MOLT-4) was > 100 µM (inactive), the GI50 (KM12) was > 100 µM (inactive) and the GI50 (UACC-62) was > 100 µM (inactive). For the same compound, the GI50 (A549) was > 100 µM (inactive), the GI50 (SF-268) was > 100 µM (inactive) and the GI50 (SK-OV-3) was > 100 µM (inactive). The GI50 (OVCAR-8) was 79.6 µM (inactive), the GI50 (OVCAR-5) was > 100 µM (inactive) and the GI50 (NCI/ADR-RES) was > 100 µM (inactive). For the same compound, the GI50 (UO-31) was > 100 µM (inactive), the GI50 (SF-295) was > 100 µM (inactive) and the GI50 (K562) was > 100 µM (inactive). The GI50 (MCF7) was 79.4 µM (inactive), the GI50 (MDA-MB-231) was 27.8 µM (inactive) and the GI50 (SW-620) was > 100 µM (inactive). For the same compound, the GI50 (BT-549) was > 100 µM (inactive), the GI50 (NCI-H226) was > 100 µM (inactive) and the GI50 (HCT-116) was > 100 µM (inactive). For the same compound, the GI50 (SNB-19) was > 100 µM (inactive), the GI50 (A498) was > 100 µM (inactive) and the GI50 (OVCAR-4) was > 100 µM (inactive). For the same compound, the GI50 (ACHN) was > 100 µM (inactive), the GI50 (EKVX) was > 100 µM (inactive) and the GI50 (CAKI-1) was > 100 µM (inactive). For the same compound, the GI50 (NCI-H23) was > 100 µM (inactive), the GI50 (CCRF-CEM) was > 100 µM (inactive) and the GI50 (COLO 205) was > 100 µM (inactive). For the same compound, the GI50 (RPMI-8226) was > 100 µM (inactive), the GI50 (SF-539) was > 100 µM (inactive) and the GI50 (Malme-3M) was > 100 µM (inactive). For the same compound, the GI50 (HCT-15) was > 100 µM, the GI50 (MDA-N) was > 100 µM (inactive) and the GI50 (U-251) was 75.2 µM (inactive). The GI50 (DU-145) was > 100 µM (inactive), the GI50 (SNB-75) was > 100 µM (inactive) and the GI50 (Hs-578T) was 21.1 µM (inactive). For the same compound, the GI50 (HOP-62) was 49 µM (inactive).
With `COc1ccccc1NC(=O)C(=O)C(C#N)CC(C)(C)C=O` (centres undefined) the GI50 (HT-29) was > 100 µM (inactive), the GI50 (NCI-H522) was > 100 µM (inactive) and the GI50 (SK-MEL-2) was > 100 µM (inactive). The GI50 (HCC 2998) was > 100 µM (inactive), the GI50 (M14) was > 100 µM (inactive) and the GI50 (786-0) was > 100 µM (inactive). The GI50 (MDA-MB-435) was > 100 µM (inactive), the GI50 (SK-MEL-28) was > 100 µM (inactive) and the GI50 (HOP-92) was > 100 µM (inactive). For the same compound, the GI50 (SN12C) was > 100 µM (inactive), the GI50 (PC-3) was > 100 µM (inactive) and the GI50 (NCI-H460) was > 100 µM (inactive). The GI50 (T47D) was > 100 µM (inactive), the GI50 (UACC-257) was > 100 µM (inactive) and the GI50 (MOLT-4) was > 100 µM (inactive). For the same compound, the GI50 (IGROV-1) was > 100 µM (inactive), the GI50 (KM12) was > 100 µM (inactive) and the GI50 (UACC-62) was > 100 µM (inactive). The GI50 (A549) was > 100 µM (inactive), the GI50 (SF-268) was > 100 µM (inactive) and the GI50 (SK-OV-3) was > 100 µM (inactive). The GI50 (OVCAR-8) was > 100 µM (inactive), the GI50 (OVCAR-5) was > 100 µM (inactive) and the GI50 (NCI/ADR-RES) was > 100 µM (inactive). The GI50 (UO-31) was > 100 µM (inactive), the GI50 (SF-295) was > 100 µM (inactive) and the GI50 (K562) was > 100 µM (inactive). For the same compound, the GI50 (MCF7) was > 100 µM (inactive), the GI50 (MDA-MB-231) was > 100 µM (inactive) and the GI50 (SW-620) was > 100 µM (inactive). The GI50 (BT-549) was > 100 µM (inactive), the GI50 (NCI-H226) was > 100 µM (inactive) and the GI50 (HCT-116) was > 100 µM (inactive). For the same compound, the GI50 (A498) was > 100 µM (inactive), the GI50 (OVCAR-4) was > 100 µM (inactive) and the GI50 (ACHN) was > 100 µM (inactive). The GI50 (EKVX) was > 100 µM (inactive), the GI50 (CAKI-1) was > 100 µM (inactive) and the GI50 (OVCAR-3) was > 100 µM (inactive). The GI50 (NCI-H23) was > 100 µM (inactive), the GI50 (LOX IMVI) was > 100 µM (inactive) and the GI50 (SR) was > 100 µM (inactive). The GI50 (TK-10) was > 100 µM (inactive), the GI50 (RXF 393) was > 100 µM (inactive) and the GI50 (RPMI-8226) was > 100 µM (inactive). For the same compound, the GI50 (SF-539) was > 100 µM (inactive), the GI50 (Malme-3M) was > 100 µM (inactive) and the GI50 (HCT-15) was > 100 µM. For the same compound, the GI50 (MDA-N) was > 100 µM (inactive), the GI50 (U-251) was > 100 µM (inactive) and the GI50 (HL-60) was > 100 µM (inactive). The GI50 (SNB-75) was > 100 µM (inactive), the GI50 (Hs-578T) was > 100 µM (inactive) and the GI50 (HOP-62) was > 100 µM (inactive). The GI50 (SK-MEL-5) was > 100 µM (inactive).
